{
  "source": "patent US10092495B2",
  "about": "“Use of a composition comprising avocado perseose in the protection of epidermal stem cells” (LABORATOIRES EXPANSCIENCE, priority 2013, dated 2018)",
  "origin": "cited, not measured here",
  "system": "Ehrlich ascites tumor cells",
  "conditions": "perseitol associated with a potassium ion",
  "data": [
    {"molecule": "OCC(O)C(O)C(O)C(O)C(O)CO", "note": "(stereo not shown) [perseitol, Perseitol]", "values": [
      {"measurement": "incorporation of 3H-leucine", "result": "inhibit"}
    ]}
  ]
}
